Active and inactive are the calls of the source.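 Rule for the calls: active = fitted half-maximal concentration for changing reporter fluorescence at or below a set limit; inactive = the rest.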
Biological target: Citrate synthase, peroxisomal (Saccharomyces cerevisiae (strain ATCC 204508 / S288c)) (UniProt P08679)
Assay: yeast TOR pathway CIT2-GFP reporter potency – flow cytometry, MLPCN hits, dose response (AID 2744)
Settings: S. cerevisiae CIT2-GFP strain, 3 h, at 33 µM (top of the series)

Citrate synthase, peroxisomal (Saccharomyces cerevisiae (strain ATCC 204508 / S288c)), sequence (P08679 whole entry, looked up): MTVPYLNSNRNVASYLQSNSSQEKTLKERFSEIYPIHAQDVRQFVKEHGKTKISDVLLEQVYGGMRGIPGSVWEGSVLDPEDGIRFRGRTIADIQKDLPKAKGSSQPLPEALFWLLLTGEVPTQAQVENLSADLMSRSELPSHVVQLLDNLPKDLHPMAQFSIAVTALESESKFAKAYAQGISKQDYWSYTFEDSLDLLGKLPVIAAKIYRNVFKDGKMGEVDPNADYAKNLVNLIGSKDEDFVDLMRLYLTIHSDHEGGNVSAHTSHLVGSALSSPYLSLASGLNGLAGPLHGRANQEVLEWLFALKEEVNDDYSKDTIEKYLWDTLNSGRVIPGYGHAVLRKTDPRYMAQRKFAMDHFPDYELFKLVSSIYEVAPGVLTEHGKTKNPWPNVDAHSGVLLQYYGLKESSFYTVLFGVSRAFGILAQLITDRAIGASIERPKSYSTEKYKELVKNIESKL

SMILES	GFP fluorescence, higher = induction
COC(=O)CCCC1=CC2=CC(=O)C(C)(OC(=O)CCc3ccccc3)C(=O)C2=CO1 (stereo not drawn)	inactive
CCc1ccc(OCC(=O)NNC(=S)NC(=O)C2CC2)c(Br)c1	inactive
COc1ccc(N=Nc2ccc(O)c3ncccc23)cc1	inactive
CCN1/C(=C/c2ccc3cc(C)ccc3[n+]2CC)Sc2ccc3sccc3c21	inactive
COc1ccc(N2C(=O)C(Cl)=C(NCc3ccccc3)C2=O)cc1	inactive
COc1ccc(C(c2c(C)[nH]n(C(N)=S)c2=O)C(C#N)C#N)cc1 (stereo not drawn)	inactive
O=C1C=C(Nc2ccc(Cl)cc2)C(=O)N1c1ccc(Cl)cc1	inactive
C=CCOc1ccc(C(=O)/C=C2/C(=O)Nc3ccccc32)cc1	inactive
CCSc1nnc(NC(=O)c2ccccn2)s1	inactive
CC1=C/C(=N\OS(=O)(=O)c2ccccc2)C(C(C)C)=CC1=O	inactive
Cc1ccc(C(=O)NNC(=S)NC(=O)COc2ccccc2)cc1	inactive
Nc1c(C(=O)c2cccs2)sc2nsc(SCCN3CCCCC3)c12	inactive
N#Cc1nccnc1S(=O)(=O)c1cccs1	inactive
Oc1c(CN2CCCCC2)cc(Br)c2cccnc12	inactive
CCOC(=O)CS(=O)(=O)c1nc(-c2ccc(F)cc2)cc(C(F)(F)F)n1	inactive
CCc1ccc(/C=C/C(=O)c2cc(Br)ccc(=O)c2O)cc1	inactive
COc1cccc(/C=C/C(=O)c2c(O)cc(C)oc2=O)c1O	inactive
O=C1C=CC(=O)N1c1ccc(O)cc1	inactive
Cc1[nH][nH]c(=O)c1C(c1ccc(-c2ccc(Cl)c(Cl)c2)o1)c1c(C)[nH][nH]c1=O	inactive
COc1cc(/C=C2\C(=O)ON=C2c2ccccc2)cc(Br)c1O	inactive
CCOC(=O)C(C(=O)OCC)C(C(=O)OCC)N1CCOCC1 (stereo not drawn)	inactive
COc1ccc([C@]2(C(C)C)ON(c3ccccc3C(F)(F)F)C2=O)cc1	inactive
COc1cc(N2C(=O)C=CC2=O)c(OC)cc1Cl	inactive
COc1ccc(/C=C/C(=O)NC(=S)NNC(=O)c2cnccn2)cc1	inactive

SMILES	GFP fluorescence, higher = induction
CCN(CC)c1ccc2cc(-c3nc4ccccc4[nH]3)c(=O)oc2c1	inactive
Cc1cc(C2CCCCC2)n(O)c(=O)c1	inactive
O=C(/C=C/c1ccnc2ccccc12)c1cccs1	inactive
Cn1ncc2c(O/N=C(\N)c3ccc(C(C)(C)C)cc3)ncnc21	inactive
O=C(c1ccc(Cl)cc1)N1CCN(c2cccc3[nH]ccc23)CC1	inactive
COc1cc(/C=C/[N+](=O)[O-])ccc1O	inactive
COc1ccccc1[C@]1(C)ON(c2ccccc2C(F)(F)F)C1=O	inactive
O=C1C(Cl)=C(Nc2ccccc2O)C(=O)N1c1ccccc1	inactive
CN(C)c1ccc(N=Cc2nc(-c3ccccc3)oc2OC(=O)c2ccccc2)cc1	inactive
O=C(CSC1=NS(=O)(=O)c2ccccc21)Nc1ccccc1	inactive
O/C=c1\ccc2cccc3nc(C(F)(F)F)nc1c23	inactive
COc1ccccc1C(=O)NNC(=S)NC(=O)c1cccs1	inactive
Oc1ccc2ccccc2c1N=Nc1nccs1	inactive
CC(=O)Oc1oc(-c2ccccc2)nc1C=Nc1ccccc1	inactive
COc1cc(/C=C2\C(=O)N(CCC#N)N=C2C)c(Br)cc1OC(C)C	inactive
CCOC(=O)CS(=O)(=O)c1nc(-c2ccccc2)cc(C(F)(F)F)n1	inactive
Cc1ccc(S(=O)(=O)c2ncccc2[N+](=O)[O-])cc1	inactive
COc1ccccc1-c1nc2s/c(=C\c3cccs3)c(=O)n2n1	inactive
CN(O)/C=c1/ccc2c(n1)C(=O)C=CC=2	inactive
O=C(Nc1ccc(NC(=O)c2cc3ccccc3o2)cc1)c1ccc2c(c1)OCCO2	inactive
O=C1c2cccc3c([N+](=O)[O-])ccc(c23)C(=O)N1CCc1ccccn1	inactive
CC(C)CC(=O)NC(=S)Nc1nc(-c2ccccc2)cs1	inactive
O=S(=O)(c1ccccc1)c1ccc(C(F)(F)F)cn1	inactive

Same assay, conditions: S. cerevisiae CIT2-GFP strain, flow cytometry fluorescence, 3 h

SMILES	EC50
CCCOc1ccc(C(=O)NNC(=S)NC(=O)CC)cc1	3.1 µM
